Results taken from PMC3914206.

Experiments:
[1] = target: T1, panel of 442 kinases (Homo sapiens, UniProt Q9UPE1); format: binding; details: kinase SRPK3; compound concentration 10 µM
T1 construct: purchased KINOMEscan
Excerpt: (§1) We assessed the selectivity of members of this scaffold using the KINOMEscan methodology across a near comprehensive panel of 442 kinases [[18,27]].

[2] = target: T2, panel of 442 kinases (Homo sapiens, UniProt Q16566); format: binding; details: Compound Concentration 10 µM
T2 construct: purchased KINOMEscan
T2 sequence (Q16566 1-473): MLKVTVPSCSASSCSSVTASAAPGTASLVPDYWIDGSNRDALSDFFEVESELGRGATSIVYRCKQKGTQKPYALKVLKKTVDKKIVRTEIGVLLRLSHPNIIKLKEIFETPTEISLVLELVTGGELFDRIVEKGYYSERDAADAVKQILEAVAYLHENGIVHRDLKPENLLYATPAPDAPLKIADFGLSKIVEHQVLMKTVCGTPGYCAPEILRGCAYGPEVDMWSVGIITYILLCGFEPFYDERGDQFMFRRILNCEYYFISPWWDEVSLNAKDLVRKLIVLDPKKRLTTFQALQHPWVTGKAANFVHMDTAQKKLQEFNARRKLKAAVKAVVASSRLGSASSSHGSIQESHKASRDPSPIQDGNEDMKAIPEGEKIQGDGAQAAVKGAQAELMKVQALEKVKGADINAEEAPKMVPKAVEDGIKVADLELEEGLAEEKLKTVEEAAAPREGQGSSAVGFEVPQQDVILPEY
Excerpt: as §1

T1 sequence (Q9UPE1 whole entry): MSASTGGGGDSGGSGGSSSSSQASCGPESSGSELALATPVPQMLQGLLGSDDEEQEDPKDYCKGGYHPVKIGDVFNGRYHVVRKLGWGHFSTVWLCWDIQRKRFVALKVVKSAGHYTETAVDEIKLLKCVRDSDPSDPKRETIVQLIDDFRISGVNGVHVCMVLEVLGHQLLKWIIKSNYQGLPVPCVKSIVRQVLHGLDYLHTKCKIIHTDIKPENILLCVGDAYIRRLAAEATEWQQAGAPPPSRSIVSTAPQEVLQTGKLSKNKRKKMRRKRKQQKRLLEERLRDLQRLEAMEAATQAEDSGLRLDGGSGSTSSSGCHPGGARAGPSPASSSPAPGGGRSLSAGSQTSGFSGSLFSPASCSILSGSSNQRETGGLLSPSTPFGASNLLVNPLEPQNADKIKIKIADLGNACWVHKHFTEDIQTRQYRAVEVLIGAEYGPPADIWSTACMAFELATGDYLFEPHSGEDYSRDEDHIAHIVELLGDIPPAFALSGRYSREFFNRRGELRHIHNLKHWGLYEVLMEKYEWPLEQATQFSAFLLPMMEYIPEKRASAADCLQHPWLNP

Row | Structure (SMILES) | % Ctrl, SRPK3 [1] [% Ctrl] | KINOMEscan: CAMK4 [2]
1 | COc1cc(C(=O)N2CCC(N3CCN(C)CC3)CC2)ccc1Nc1ncc2c(n1)N1CCc3cccc(c31)C(=O)N2C [Compound 24] | 91 | –
2 | CCOc1cc(C(=O)N2CCC(N3CCN(C)CC3)CC2)ccc1Nc1ncc2c(n1)N(C1CCCC1)c1ccccc1C(=O)N2C [Compound 26] | 100 | 100
3 | COc1cc(C(=O)N2CCC(N3CCN(C)CC3)CC2)ccc1Nc1ncc2c(n1)N(C1CCCC1)c1ccccc1C(=O)N2C [Compound 25, 11-cyclopentyl-2-((2-methoxy-4-(4-(4-methylpiperazin-1-yl)piperidine-1-carbonyl)phenyl)amino)-5-methyl-5H-benzo[e]pyrimido[5,4-b][1,4]diazepin-6(11H)-one] | 91 | 82
4 | COc1cc(C(=O)N2CCC(N3CCN(C)CC3)CC2)ccc1Nc1ncc2c(n1)N(C)c1ccccc1C(=O)N2C [15 (LRRK2-IN-1)] | 72 | 79
